Source: ChEMBL document CHEMBL5096234, “Discovery, Optimization, and Evaluation of Selective CDK4/6 Inhibitors for the Treatment of Breast Cancer” (J Med Chem, 2022)
≈ marks a conversion by molar mass, not a printed value. Calls of active or inactive are those of the source. The rule behind the calls is not given here.

Key:
MCF7 [1] = assay: Induction of cell cycle arrest in human MCF7 cells assessed as accumulation of cells at G1 phase at 6 uM incubated for 24 hrs by propidium iodide staining based flow cytometry analysis (reference value: 57.38%); format: functional
T47D [2] = assay: Downregulation cyclin D1 level in human T47D cells incubated for 24 hrs by Western blot analysis; format: functional, cell-based; conditions: dose 1-4 µM, DDE = dose-dependent effect
[3] = Half life in Sprague-Dawley rat 10 mg/kg, po by LC/MS/MS analysis; format: ADME, organism-based; conditions: in vivo
[4] = Inhibition of CDK1/cyclin B (unknown origin) in presence of ATP by time resolved-FRET assay; set-up: species or system Homo sapiens
[5] = Tmax in Sprague-Dawley rat 10 mg/kg, po by LC/MS/MS analysis; format: ADME, organism-based; conditions: in vivo
[6] = MRT (0 to infinity) in Sprague-Dawley rat 1 mg/kg, iv by LC/MS/MS analysis; format: ADME, organism-based; conditions: in vivo
MCF7 [7] = assay: Induction of cell cycle arrest in human MCF7 cells assessed as accumulation of cells at G2 phase at 1.5 uM incubated for 24 hrs by propidium iodide staining based flow cytometry analysis (reference value: 29.66%); format: functional
[8] = Acute toxicity in ICR mouse assessed as change in heart weight at 1000 to 5000 mg/kg, po administered as single dose and measured every 2 days for 14 days; format: organism-based; conditions: in vivo, 336 h, dose 1000-5000 mg/kg, time 14 day
[9] = AUC (0 to infinity) in Sprague-Dawley rat 1 mg/kg, iv by LC/MS/MS analysis; format: ADME, organism-based; set-up: time infinity, dose 1 mg/kg, route iv; conditions: in vivo
T47D [10] = assay: Induction of cell cycle arrest in human T47D cells assessed as accumulation of cells at G1 phase at 2 uM incubated for 24 hrs by propidium iodide staining based flow cytometry analysis (reference value: 69.55 %); format: functional
CYP3A4 = CYP3A4 (Homo sapiens, UniProt P08684); assay: Inhibition of CYP3A4 in human liver microsomes using testosterone as substrate at 10 uM preincubated for 5 mins followed by NADPH addition by LC-MS/MS analysis relative to control; format: ADME, Microsome; conditions: probe testosterone
Chain of CYP3A4 (P08684 whole entry): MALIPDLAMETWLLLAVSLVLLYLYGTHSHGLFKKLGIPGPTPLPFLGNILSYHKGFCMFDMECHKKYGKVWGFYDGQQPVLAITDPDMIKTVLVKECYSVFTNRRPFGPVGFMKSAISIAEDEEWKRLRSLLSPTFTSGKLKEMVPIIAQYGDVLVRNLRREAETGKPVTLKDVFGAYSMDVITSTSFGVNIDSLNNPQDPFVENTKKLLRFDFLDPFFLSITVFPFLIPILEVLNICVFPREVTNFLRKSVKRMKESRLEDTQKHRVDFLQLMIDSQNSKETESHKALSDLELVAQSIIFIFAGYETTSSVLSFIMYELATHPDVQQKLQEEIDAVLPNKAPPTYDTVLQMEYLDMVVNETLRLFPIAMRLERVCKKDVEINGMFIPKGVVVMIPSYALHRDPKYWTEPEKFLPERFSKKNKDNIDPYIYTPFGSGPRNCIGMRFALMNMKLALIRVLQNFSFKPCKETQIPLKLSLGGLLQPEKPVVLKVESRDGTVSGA

[11] = biological target: T1, Retinoblastoma-associated protein (Homo sapiens) (UniProt P06400); assay: Inhibition of RB phosphorylation in human MCF7 cells at 1.5 to 5 uM incubated for 24 hrs by Western blot analysis; format: cell-based; conditions: dose 1.5-5 µM
T1 sequence (whole entry): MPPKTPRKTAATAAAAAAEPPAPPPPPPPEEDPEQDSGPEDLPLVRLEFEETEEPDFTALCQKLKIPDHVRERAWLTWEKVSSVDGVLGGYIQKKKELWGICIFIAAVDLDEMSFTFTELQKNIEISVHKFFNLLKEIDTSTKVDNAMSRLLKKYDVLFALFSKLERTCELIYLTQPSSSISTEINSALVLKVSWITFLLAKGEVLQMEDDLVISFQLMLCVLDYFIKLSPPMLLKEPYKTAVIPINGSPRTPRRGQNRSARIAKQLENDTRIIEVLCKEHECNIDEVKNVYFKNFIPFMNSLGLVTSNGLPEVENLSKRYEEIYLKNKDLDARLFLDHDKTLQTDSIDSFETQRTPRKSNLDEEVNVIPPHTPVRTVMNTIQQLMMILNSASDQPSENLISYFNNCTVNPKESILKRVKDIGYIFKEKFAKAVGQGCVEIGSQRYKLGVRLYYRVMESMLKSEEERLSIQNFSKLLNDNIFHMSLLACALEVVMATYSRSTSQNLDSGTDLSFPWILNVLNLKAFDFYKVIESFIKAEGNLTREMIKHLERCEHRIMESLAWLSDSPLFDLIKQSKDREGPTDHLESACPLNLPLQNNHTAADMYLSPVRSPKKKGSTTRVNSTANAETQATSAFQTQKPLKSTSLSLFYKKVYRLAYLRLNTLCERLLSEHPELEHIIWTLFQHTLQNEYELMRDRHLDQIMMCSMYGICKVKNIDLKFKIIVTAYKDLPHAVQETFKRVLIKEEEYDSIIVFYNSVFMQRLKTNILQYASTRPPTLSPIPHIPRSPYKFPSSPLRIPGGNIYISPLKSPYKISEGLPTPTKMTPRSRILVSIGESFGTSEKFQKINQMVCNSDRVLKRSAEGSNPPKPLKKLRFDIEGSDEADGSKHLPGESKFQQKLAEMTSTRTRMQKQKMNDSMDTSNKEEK

[12] = Thermodynamic solubility of the compound incubated for 24 hrs under shaking condition by LC-MS/MS analysis; format: physicochemical; conditions: read-out: Therm_solubility
[13] = Oral bioavailability in Sprague-Dawley rat 10 mg/kg by LC/MS/MS analysis; format: ADME, organism-based; conditions: in vivo
[14] = Half life in Sprague-Dawley rat 1 mg/kg, iv by LC/MS/MS analysis; format: ADME, organism-based; conditions: in vivo
MCF7 [15] = assay: Downregulation cyclin D1 level in human MCF7 cells incubated for 24 hrs by Western blot analysis; format: functional, cell-based; conditions: dose 1.5-5 µM, DDE = dose-dependent effect
MCF7 [16] = assay: Downregulation c-MYC level in human MCF7 cells incubated for 24 hrs by Western blot analysis; format: functional, cell-based; conditions: dose 1.5-5 µM, DDE = dose-dependent effect
[17] = Acute toxicity in ICR mouse assessed as lung lesions at 5000 mg/kg, po administered as single dose and measured every 2 days for 14 days by H and E staining based analysis; format: organism-based; conditions: in vivo, 336 h, time 14 day
T47D [18] = assay: Induction of cell cycle arrest in human T47D cells assessed as accumulation of cells at G2 phase at 2 uM incubated for 24 hrs by propidium iodide staining based flow cytometry analysis (reference value: 16.57%); format: functional
[19] = biological target: T1, Retinoblastoma-associated protein (Homo sapiens); assay: Inhibition of RB phosphorylation in human T47D cells at 1 to 4 uM incubated for 24 hrs by Western blot analysis; format: cell-based; conditions: dose 1-4 µM
[20] = Cmax in Sprague-Dawley rat 10 mg/kg, po by LC/MS/MS analysis; format: ADME, organism-based; set-up: dose 10 mg/kg, route po; conditions: in vivo
CDK9/cyclin T1 = CDK9/cyclin T1 (Homo sapiens, UniProt P50750); assay: Inhibition of CDK9/Cyclin T1 (unknown origin) in presence of ATP by time resolved-FRET assay; format: protein-complex assay
Chain of CDK9/cyclin T1 (O60563 whole entry): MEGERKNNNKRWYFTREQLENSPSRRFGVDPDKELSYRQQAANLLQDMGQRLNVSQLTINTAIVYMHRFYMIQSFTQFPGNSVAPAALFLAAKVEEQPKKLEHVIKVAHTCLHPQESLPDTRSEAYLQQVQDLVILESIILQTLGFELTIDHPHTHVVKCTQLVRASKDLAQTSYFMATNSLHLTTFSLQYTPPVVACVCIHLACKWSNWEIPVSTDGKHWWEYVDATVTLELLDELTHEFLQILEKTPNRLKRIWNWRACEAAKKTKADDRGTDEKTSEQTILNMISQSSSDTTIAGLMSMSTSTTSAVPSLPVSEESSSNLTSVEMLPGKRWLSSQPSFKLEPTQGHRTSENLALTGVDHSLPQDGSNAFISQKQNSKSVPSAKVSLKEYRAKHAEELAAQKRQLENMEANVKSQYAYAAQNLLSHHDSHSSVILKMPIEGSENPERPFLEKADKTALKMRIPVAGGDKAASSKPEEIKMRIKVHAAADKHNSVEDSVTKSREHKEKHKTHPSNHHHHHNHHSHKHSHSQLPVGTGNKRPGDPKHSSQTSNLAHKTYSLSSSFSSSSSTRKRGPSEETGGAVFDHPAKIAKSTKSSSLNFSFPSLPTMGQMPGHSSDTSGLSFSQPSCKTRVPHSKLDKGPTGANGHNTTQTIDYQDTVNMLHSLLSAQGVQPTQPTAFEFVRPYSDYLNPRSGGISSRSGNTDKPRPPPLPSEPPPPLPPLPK
Chain of CDK9/cyclin T1 (P50750 whole entry): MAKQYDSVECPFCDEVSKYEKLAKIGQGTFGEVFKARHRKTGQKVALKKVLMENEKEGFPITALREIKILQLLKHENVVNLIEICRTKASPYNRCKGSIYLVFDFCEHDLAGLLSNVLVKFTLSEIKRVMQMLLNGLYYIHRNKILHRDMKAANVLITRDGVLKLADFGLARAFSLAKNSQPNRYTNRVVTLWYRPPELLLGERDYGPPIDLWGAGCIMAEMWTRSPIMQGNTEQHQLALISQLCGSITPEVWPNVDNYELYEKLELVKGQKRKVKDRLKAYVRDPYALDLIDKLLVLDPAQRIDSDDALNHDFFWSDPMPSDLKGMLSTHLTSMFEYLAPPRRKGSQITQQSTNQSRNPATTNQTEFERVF

[21] = Acute toxicity in ICR mouse assessed as change in heart kidney at 1000 to 5000 mg/kg, po administered as single dose and measured every 2 days for 14 days; format: organism-based; conditions: in vivo, 336 h, dose 1000-5000 mg/kg, time 14 day
T47D [22] = assay: Induction of cell cycle arrest in human T47D cells assessed as accumulation of cells at G2 phase at 4 uM incubated for 24 hrs by propidium iodide staining based flow cytometry analysis (reference value: 16.57%); format: functional
[23] = Acute toxicity in ICR mouse assessed as change in spleen weight at 1000 to 5000 mg/kg, po administered as single dose and measured every 2 days for 14 days; format: organism-based; conditions: in vivo, 336 h, dose 1000-5000 mg/kg, time 14 day
MCF7 [24] = assay: Induction of cell cycle arrest in human MCF7 cells assessed as accumulation of cells at G1 phase at 1.5 uM incubated for 24 hrs by propidium iodide staining based flow cytometry analysis (reference value: 57.38%); format: functional
[25] = Acute toxicity in ICR mouse assessed as change in liver weight at 1000 to 5000 mg/kg, po administered as single dose and measured every 2 days for 14 days; format: organism-based; conditions: in vivo, 336 h, dose 1000-5000 mg/kg, time 14 day
MCF7 [26] = assay: Antiproliferative activity against human MCF7 cells assessed as cell growth inhibition incubated for 72 hrs by CCK-8 assay; format: functional

For `CCN1CCc2cc(-c3nc(Nc4ccc(N5CCNCC5)cn4)ncc3F)ccc2C1=O`, the Activity (MCF7 [1]) was 85.27%, the Activity (T47D [2]) was “Dde” and the half-life [3] was 3.59 h. The IC50 [4] was greater than 10000 nM, the Tmax [5] was 6 h and the MRT inf [6] was 3.5 h. For the same compound, the Activity (MCF7 [7]) was 13.57%, the Activity [8] was “Non-Toxic” and the AUC(0-inf) [9] was 373 ng·h/mL. For the same compound, the Activity (T47D [10]) was 85.48%, the inhibition at 10 µM (CYP3A4) was 12.4% and the inhibition [11] was “Active”. It also gave a solubility thermodynamic at 24 h [12] of 1020 µg/mL (≈ 2280 µM), a bioavailability [13] of 43% and a half-life [14] of 2.62 h. The Activity (MCF7 [15]) was “Dde”, the Activity (MCF7 [16]) was “Dde” and the Activity [17] was “Non-Toxic”. The Activity (T47D [18]) was 6.06%, the inhibition [19] was “Active” and the Cmax [20] was 144 ng/mL. The IC50 (CDK9/cyclin T1) was 2660 nM, the Activity [21] was “Non-Toxic” and the Activity (T47D [22]) was 5.87%. The Activity [23] was “Non-Toxic”, the Activity (MCF7 [24]) was 79.52% and the Activity [25] was “Non-Toxic”. It also gave a GI50 (MCF7 [26]) of 2700 nM.
